Results on 11 molecules are retold here after patent publication US10098902B2, “Arginase inhibitors as therapeutics” (Mars, Incorporated, priority 2010, dated 2018).

Assay [1] relates to animals undergoing experimental autoimmune encephalomyelitis (EAE). Conditions: mouse, in vivo; cited from earlier work.
Assay [2] concerns the target human arginase II (ARG II) (Homo sapiens (Human), UniProt P78540). Put plainly: Inhibition of arginase II, spectrophotometric urea assay at 530 nm. It is filed as biochemical. The note with it: potency rank 1-5; pH 7.4, 37° C., 60 minutes. As to the method: (§1) Inhibition of arginase I (ARG I) and arginase II (ARG II) by Formula I or Formula II compounds is followed spectrophotometrically at 530 nm. The compound to be tested was dissolved in DMSO at an initial concentration 50-fold greater than its final concentration in the cuvette. 10 μl of the stock solution was diluted in 90 μl of the assay buffer that comprises 0.1M sodium phosphate buffer containing 130 mM NaCl, pH 7.4, to which is added ovalbumin (OVA) at a concentration of 1 mg/ml. Solutions of arginase I and II were prepared in 100 mM sodium phosphate buffer, pH 7.4 containing 1 mg/ml of OVA to give an arginase stock solution at a final concentration of 100 ng/ml.
(§2) To each well of a 96-well microtiter plate was added 40 μl of enzyme, 10 μl of an inventive compound and 10 μl of enzyme substrate (L-arginine+manganese sulfate). For wells that were used as positive controls, only the enzyme and its substrate were added, while wells used as negative controls contained only manganese sulfate.
(§3) After incubating the microtiter plate at 37° C. for 60 minutes, 150 μl of a urea reagent obtained by combining equal proportions (1:1) of reagents A and B is added to each well of the microtiter plate to stop the reaction. The urea reagent is made just before use by combining Reagent A (10 mM o-phthaldialdehyde, and 0.4% polyoxyethylene (23) lauryl ether (w/v) in 1.8 M sulfuric acid) with Reagent B (1.3 mM primaquine diphosphate, 0.4% polyoxyethylene (23) lauryl ether (w/v), 130 mM boric acid in 3.6 mM sulfuric acid). After quenching the reaction mixture, the microtiter plate is allowed to stand for an additional 10 minutes at room temperature to allow the color to develop. The inhibition of arginase was computed by measuring the optical density (OD) of the reaction mixture at 530 nm and normalizing the OD value to percent inhibition observed in the control. The normalized OD is then used to generate a dose-response curve by plotting the normalized OD values against log [concentration] and using regression analysis to compute the IC50 values.

For another assay, the target named is human arginase I (ARG I) (Homo sapiens (Human), UniProt P05089). Put plainly: Inhibition of arginase I, spectrophotometric urea assay at 530 nm. It is filed as biochemical. Conditions: potency rank 1-5; pH 7.4, 37° C., 60 minutes. As for the experimental part:
as §1, §2, §3

A further assay relates to bacterial arginase. Conditions: cited from earlier work.
In assay [3] the test system is central airways in the murine chronic model. The note with it: murine chronic asthma model; cited from earlier work.
For assay [4], the system named is spontaneously hypertensive animals. Conditions: cited from earlier work.

human arginase II (ARG II), sequence (P78540 23-354): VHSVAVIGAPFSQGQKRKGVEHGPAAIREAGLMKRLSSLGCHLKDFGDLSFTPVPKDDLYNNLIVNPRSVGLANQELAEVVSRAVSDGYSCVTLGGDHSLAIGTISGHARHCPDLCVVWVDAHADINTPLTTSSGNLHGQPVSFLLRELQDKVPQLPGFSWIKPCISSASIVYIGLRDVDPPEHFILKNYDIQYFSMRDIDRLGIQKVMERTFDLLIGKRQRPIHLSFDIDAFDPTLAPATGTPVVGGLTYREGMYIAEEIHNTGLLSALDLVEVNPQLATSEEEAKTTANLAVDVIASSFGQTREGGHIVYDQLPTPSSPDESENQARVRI
human arginase I (ARG I), sequence (P05089 whole entry): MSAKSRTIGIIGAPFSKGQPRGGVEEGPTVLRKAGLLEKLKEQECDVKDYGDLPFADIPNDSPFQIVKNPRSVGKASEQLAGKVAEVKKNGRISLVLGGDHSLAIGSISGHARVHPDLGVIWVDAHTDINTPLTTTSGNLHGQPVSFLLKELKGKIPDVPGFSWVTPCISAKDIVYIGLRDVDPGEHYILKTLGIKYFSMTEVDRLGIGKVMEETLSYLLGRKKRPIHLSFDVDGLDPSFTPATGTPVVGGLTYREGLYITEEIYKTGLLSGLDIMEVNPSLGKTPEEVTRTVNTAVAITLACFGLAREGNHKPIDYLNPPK

As for `NC(CCCCB(O)O)C(=O)O` (stereo not shown) [ABH, amino-6-boronohexanoic acid], the “severity of EAE versus control animals” value in assay [1] was “much milder form of EAE”.

For orientation: IC50 means the concentration that inhibits the measured activity by half. For the molecule `N[C@@]1(C(=O)O)CN(CCNc2ccc(-c3ccccc3)cc2)C[C@@H]1CCCB(O)O` [Example 52, (3R,4S)-3-amino-1-(2-(biphenyl-4-ylamino)ethyl)-4-(3-boronopropyl)pyrrolidine-3-carboxylic acid], the IC50 (in assay [2]; on human arginase I (ARG I)) was 0.1 to 250 nM throughout.

`N[C@@]1(C(=O)O)CN(CC2Cc3ccc(C(F)(F)F)cc3CN2)C[C@@H]1CCCB(O)O` (stereo partly drawn) [Example 55, (3R,4S)-3-amino-4-(3-boronopropyl)-1-((7-(trifluoromethyl)-1,2,3,4-tetrahydroisoquinolin-3-yl)methyl)pyrrolidine-3-carboxylic acid]: the IC50 (in assay [2]; against human arginase I (ARG I)) was 0.1 to 250 nM each time. For `N[C@@]1(C(=O)O)CN(C(=O)C2Cc3ccc(Cl)cc3CN2)C[C@@H]1CCCB(O)O` (stereo partly drawn) [Example 56, (3R,4S)-3-amino-4-(3-boronopropyl)-1-(7-chloro-1,2,3,4-tetrahydroisoquinoline-3-carbonyl)pyrrolidine-3-carboxylic acid], the IC50 (in assay [2]; on human arginase I (ARG I)) was 0.1 to 250 nM throughout.

For `CNC(Cc1ccccc1)C(=O)N1C[C@H](CCCB(O)O)[C@](N)(C(=O)O)C1` (stereo partly drawn) [Example 58, (3R,4S)-3-amino-4-(3-boronopropyl)-1-(2-(methylamino)-3-phenylpropanoyl)pyrrolidine-3-carboxylic acid], the IC50 (in assay [2]; against human arginase I (ARG I)) was 1000 to 2000 nM throughout. On to `N[C@@]1(C(=O)O)CN(CC2Cc3c(Cl)cc(Cl)cc3CN2)C[C@@H]1CCCB(O)O` (stereo partly drawn) [Example 59, (3R,4S)-3-amino-4-(3-boronopropyl)-1-((5,7-dichloro-1,2,3,4-tetrahydroisoquinolin-3-yl)methyl)pyrrolidine-3-carboxylic acid], for which the IC50 (in assay [2]; on human arginase I (ARG I)) was 0.1 to 250 nM in each case. Regarding `N[C@@]1(C(=O)O)CN(C(=O)CNCc2ccccc2)C[C@@H]1CCCB(O)O` [Example 60, (3R,4S)-3-amino-1-(2-(benzylamino)acetyl)-4-(3-boronopropyl)pyrrolidine-3-carboxylic acid], the figures for the concentration for half-maximal inhibition (IC50) (in assay [2]; at human arginase I (ARG I)) were 1000 to 2000 nM and 251 to 1000 nM, respectively.

Turning to `N[C@H]1C[C@H](CCCB(O)O)[C@](N)(C(=O)O)C1` [Example 61, (1S,2S,4S)-1,4-diamino-2-(3-boronopropyl)cyclopentanecarboxylic acid], the IC50 (in assay [2]; at human arginase I (ARG I)) was 251 to 1000 nM in each case. On to `NC(=NCCC[C@H](N)C(=O)O)NO` [NOHA], for which, in the assay with bacterial arginase, the “CD3 expression on T-cells” value is given as “reestablished CD3 expression on T-cells” and the “production of NO by macrophages” value is reported as “enhanced production of NO by macrophages”. Consider `N[C@@H](CSCCB(O)O)C(=O)O` [S-(2-boronoethyl)-L-cysteine], for which the “methacholine induced responsiveness of the central airways” value in assay [3] is recorded as “attenuated”. For the molecule `N=C(NO)NCC[C@H](N)C(=O)O` [nor-NOHA, N^ω-hydroxy-nor-L-arginine], the “effect on blood pressure” value in assay [4] is recorded as “lowered blood pressure”.
